How the values were obtained:
Type in all cases: in vivo
Design in all cases: key: 0 is no effect; 10 is complete control
[1] = system: bedstraw (Galium aparine); experiment: Test B pre-/postemergence
Outline: (§1)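 Response scores run from 0, meaning no effect, to 10, meaning complete control, assigned by eye relative to controls twelve to sixteen days after spraying. Treatment was both preemergence on planted seed and postemergence on plants at the 1- to 4-leaf stage.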

[2] = system: blackgrass (Alopecurus myosuroides); experiment: Test B pre-/postemergence
Outline: as §1

[3] = system: broadleaf signalgrass (Brachiaria decumbens); experiment: Test B pre-/postemergence
Outline: as §1

[4] = system: cocklebur (Xanthium strumarium); experiment: Test B pre-/postemergence
Outline: as §1

corn (Zea mays) = experiment: Test B pre-/postemergence
Outline: as §1

[5] = system: crabgrass (Digitaria sanguinalis); experiment: Test B pre-/postemergence
Outline: as §1

[6] = system: giant foxtail (Setaria faberii); experiment: Test B pre-/postemergence
Outline: as §1

[7] = system: momingglory (Ipomoea hederacea); experiment: Test B pre-/postemergence
Outline: as §1

[8] = system: pigweed (Amaranthus retroflexus); experiment: Test B pre-/postemergence
Outline: as §1

[9] = system: purple nutsedge (Cyperus rotundus); experiment: Test B pre-/postemergence
Outline: as §1

rape (Brassica napus) = experiment: Test B pre-/postemergence
Outline: as §1

soybean (Glycine max) = experiment: Test B pre-/postemergence
Outline: as §1

[10] = system: sugar beet (Beta vulgaris); experiment: Test B pre-/postemergence
Outline: as §1

[11] = system: velvetleaf (Abutilon theophrasti); experiment: Test B pre-/postemergence
Outline: as §1

[12] = system: wheat (Triticum aestivum); experiment: Test B pre-/postemergence
Outline: as §1

wild oat (Avena fatua) = experiment: Test B pre-/postemergence
Outline: as §1

[13] = system: bamyardgrass (Echinochloa crus-galli); experiment: Test B flood test
Outline: (§2)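 Each value is a visual injury score relative to controls, with 10 meaning complete control and 0 no effect. Evaluation took place twelve to sixteen days after the 2-leaf-stage plants were treated and kept in the greenhouse.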

[14] = system: duck salad (Heteranthera limosa); experiment: Test B flood test
Outline: as §2

rice (Oryza sativa) = experiment: Test B flood test
Outline: as §2

[15] = system: smallflower flatsedge (Cyperus difformis); experiment: Test B flood test
Outline: as §2

[16] = Preemergence, Rate 62 g/ha, scale of 0 to 10
[17] = Rate 62 g/ha, Postemergence (flood test)
[18] = Rate 125 g/ha, Postemergence section (flood test species)
[19] = Rate 250 g/ha, Postemergence (flood test species)

O=C(c1cccc(C(F)(F)F)c1)c1ccnc(-n2ccc(C(F)(F)F)n2)n1 [Compound 70]
Plant response rating, Bedstraw [1, 16]: 0
Bedstraw plant response rating ([1]; Rate 62 g/ha, Postemergence): 1
Bedstraw plant response rating ([1]; Rate 125 g/ha, Postemergence): 1
Plant response rating, Bedstraw ([1]; Rate 125 g/ha, Preemergence): 0
Plant response rating, Bedstraw ([1]; Rate 250 g/ha, Postemergence): 1
Plant response rating, Bedstraw ([1]; Rate 250 g/ha, Preemergence): 0
Plant response rating, Blackgrass [2, 16]: 0
Blackgrass plant response rating ([2]; Rate 62 g/ha, Postemergence): 0
Blackgrass plant response rating ([2]; Rate 125 g/ha, Postemergence): 0
Plant response rating, Blackgrass ([2]; Rate 125 g/ha, Preemergence): 0
Plant response rating, Blackgrass ([2]; Rate 250 g/ha, Postemergence): 0
Plant response rating, Blackgrass ([2]; Rate 250 g/ha, Preemergence): 0
B. signalgrass plant response rating ([3]; Rate 62 g/ha, Postemergence): 0
B. signalgrass plant response rating ([3]; Rate 62 g/ha, Preemergence): 0
B. signalgrass plant response rating ([3]; Rate 125 g/ha, Postemergence): 0
Plant response rating, B. signalgrass ([3]; Rate 125 g/ha, Preemergence): 0
Plant response rating, B. signalgrass ([3]; Rate 250 g/ha, Postemergence): 1
Plant response rating, B. signalgrass ([3]; Rate 250 g/ha, Preemergence): 0
Plant response rating, Cocklebur [4, 16]: 0
Cocklebur plant response rating ([4]; Rate 62 g/ha, Postemergence): 1
Cocklebur plant response rating ([4]; Rate 125 g/ha, Postemergence): 2
Plant response rating, Cocklebur ([4]; Rate 125 g/ha, Preemergence): 0
Plant response rating, Cocklebur ([4]; Rate 250 g/ha, Postemergence): 2
Plant response rating, Cocklebur ([4]; Rate 250 g/ha, Preemergence): 0
Plant response rating, Corn (corn (Zea mays); [16]): 0
Corn plant response rating (corn (Zea mays); Rate 62 g/ha, Postemergence): 1
Corn plant response rating (corn (Zea mays); Rate 125 g/ha, Postemergence): 1
Plant response rating, Corn (corn (Zea mays); Rate 125 g/ha, Preemergence): 0
Plant response rating, Corn (corn (Zea mays); Rate 250 g/ha, Postemergence): 2
Plant response rating, Corn (corn (Zea mays); Rate 250 g/ha, Preemergence): 0
Plant response rating, Crabgrass [5, 16]: 0
Crabgrass plant response rating ([5]; Rate 62 g/ha, Postemergence): 0
Crabgrass plant response rating ([5]; Rate 125 g/ha, Postemergence): 1
Plant response rating, Crabgrass ([5]; Rate 125 g/ha, Preemergence): 0
Plant response rating, Crabgrass ([5]; Rate 250 g/ha, Postemergence): 1
Plant response rating, Crabgrass ([5]; Rate 250 g/ha, Preemergence): 0
Plant response rating, Giant foxtail [6, 16]: 0
Giant foxtail plant response rating ([6]; Rate 62 g/ha, Postemergence): 0
Giant foxtail plant response rating ([6]; Rate 125 g/ha, Postemergence): 0
Plant response rating, Giant foxtail ([6]; Rate 125 g/ha, Preemergence): 0
Plant response rating, Giant foxtail ([6]; Rate 250 g/ha, Postemergence): 0
Plant response rating, Giant foxtail ([6]; Rate 250 g/ha, Preemergence): 0
Plant response rating, Morningglory [7, 16]: 0
Morningglory plant response rating ([7]; Rate 62 g/ha, Postemergence): 1
Morningglory plant response rating ([7]; Rate 125 g/ha, Postemergence): 1
Plant response rating, Morningglory ([7]; Rate 125 g/ha, Preemergence): 0
Plant response rating, Morningglory ([7]; Rate 250 g/ha, Postemergence): 2
Plant response rating, Morningglory ([7]; Rate 250 g/ha, Preemergence): 0
Plant response rating, Redroot pigweed [8, 16]: 0
Redroot pigweed plant response rating ([8]; Rate 62 g/ha, Postemergence): 0
Redroot pigweed plant response rating ([8]; Rate 125 g/ha, Postemergence): 2
Plant response rating, Redroot pigweed ([8]; Rate 125 g/ha, Preemergence): 0
Plant response rating, Redroot pigweed ([8]; Rate 250 g/ha, Postemergence): 3
Plant response rating, Redroot pigweed ([8]; Rate 250 g/ha, Preemergence): 0
Plant response rating, Nutsedge [9, 16]: 0
Nutsedge plant response rating ([9]; Rate 62 g/ha, Postemergence): 0
Nutsedge plant response rating ([9]; Rate 125 g/ha, Postemergence): 0
Plant response rating, Nutsedge ([9]; Rate 125 g/ha, Preemergence): 0
Plant response rating, Nutsedge ([9]; Rate 250 g/ha, Postemergence): 0
Plant response rating, Rape (rape (Brassica napus); [16]): 0
Rape plant response rating (rape (Brassica napus); Rate 62 g/ha, Postemergence): 0
Rape plant response rating (rape (Brassica napus); Rate 125 g/ha, Postemergence): 1
Plant response rating, Rape (rape (Brassica napus); Rate 125 g/ha, Preemergence): 0
Plant response rating, Rape (rape (Brassica napus); Rate 250 g/ha, Postemergence): 1
Plant response rating, Rape (rape (Brassica napus); Rate 250 g/ha, Preemergence): 0
Plant response rating, Soybean (soybean (Glycine max); [16]): 0
Soybean plant response rating (soybean (Glycine max); Rate 62 g/ha, Postemergence): 1
Soybean plant response rating (soybean (Glycine max); Rate 125 g/ha, Postemergence): 2
Plant response rating, Soybean (soybean (Glycine max); Rate 125 g/ha, Preemergence): 0
Plant response rating, Soybean (soybean (Glycine max); Rate 250 g/ha, Postemergence): 3
Plant response rating, Soybean (soybean (Glycine max); Rate 250 g/ha, Preemergence): 0
Plant response rating, Sugarbeets [10, 16]: 0
Sugarbeets plant response rating ([10]; Rate 62 g/ha, Postemergence): 0
Sugarbeets plant response rating ([10]; Rate 125 g/ha, Postemergence): 1
Plant response rating, Sugarbeets ([10]; Rate 125 g/ha, Preemergence): 0
Plant response rating, Sugarbeets ([10]; Rate 250 g/ha, Postemergence): 2
Plant response rating, Sugarbeets ([10]; Rate 250 g/ha, Preemergence): 0
Plant response rating, Velvetleaf [11, 16]: 0
Velvetleaf plant response rating ([11]; Rate 62 g/ha, Postemergence): 0
Velvetleaf plant response rating ([11]; Rate 125 g/ha, Postemergence): 1
Plant response rating, Velvetleaf ([11]; Rate 125 g/ha, Preemergence): 0
Plant response rating, Velvetleaf ([11]; Rate 250 g/ha, Postemergence): 1
Plant response rating, Velvetleaf ([11]; Rate 250 g/ha, Preemergence): 0
Plant response rating, Wheat [12, 16]: 0
Wheat plant response rating ([12]; Rate 62 g/ha, Postemergence): 0
Wheat plant response rating ([12]; Rate 125 g/ha, Postemergence): 0
Plant response rating, Wheat ([12]; Rate 125 g/ha, Preemergence): 0
Plant response rating, Wheat ([12]; Rate 250 g/ha, Postemergence): 0
Plant response rating, Wheat ([12]; Rate 250 g/ha, Preemergence): 0
Plant response rating, Wild oats (wild oat (Avena fatua); [16]): 0
Wild oats plant response rating (wild oat (Avena fatua); Rate 62 g/ha, Postemergence): 0
Wild oats plant response rating (wild oat (Avena fatua); Rate 125 g/ha, Postemergence): 0
Plant response rating, Wild oats (wild oat (Avena fatua); Rate 125 g/ha, Preemergence): 0
Plant response rating, Wild oats (wild oat (Avena fatua); Rate 250 g/ha, Postemergence): 0
Plant response rating, Wild oats (wild oat (Avena fatua); Rate 250 g/ha, Preemergence): 0
Barnyardgrass plant response rating [13, 17]: 0
Barnyardgrass plant response rating [13, 18]: 0
Plant response rating, Barnyardgrass [13, 19]: 0
Ducksalad plant response rating [14, 17]: 0
Ducksalad plant response rating [14, 18]: 0
Plant response rating, Ducksalad [14, 19]: 0
Rice plant response rating (rice (Oryza sativa); [17]): 0
Rice plant response rating (rice (Oryza sativa); [18]): 0
Plant response rating, Rice (rice (Oryza sativa); [19]): 0
S. Flatsedge plant response rating [15, 17]: 0
S. Flatsedge plant response rating [15, 18]: 0
Plant response rating, S. Flatsedge [15, 19]: 0
